Patent publication US10934267B2, “Alpha-tea salt forms: compositions and uses for treating disease” (Research Development Foundation, priority 2013, dated 2021)

Key:
[1] = salt forming base; cited from earlier work
[2] = cited from earlier work; for Class (safety and pharmaceutical acceptability of the counter-ions): salt forming base; for Counter Ion Class: Table 6 summary
[3] = Static humidity experiments, gravimetric weight change; type: physicochemical
Text: Formation of hydrates can be a very slow kinetic process. A second approach to identify hydrate formation is performing static humidity experiments and monitor gravimetrically for weight change.

[4] = Stability of stressed salts and free acid by HPLC total area normalization; details: for Stability compared to free acid: Table 6 summary, in solution
Description: The scaled up salts and free acid were challenged by heat (solids stored at 25 and 60° C. for 1 week), oxidation (solids stored in oxygen headspace at 25° C. for 1 week), light (solids exposed≥1×ICH International Conference on Harmonization of Technical Requirements for Registration of Pharmaceuticals for Human Use UV confirmatory conditions), and solutions (HPLC diluent-methanol) at 25 and 40° C. for 1 week.
These samples were analyzed, along with unstressed controls, by HPLC to characterize their stability.
Salt candidates were analyzed by total area normalization (TAN). The samples were dissolved in methanol at a concentration of 0.8 mg/mL.
The three salts (lysine, arginine, and tris) were challenged using heat (solids stored at 25 and 60° C. for 1 week), oxidation (solids stored in oxygen headspace at 25° C. for 1 week), light (UV source under ICH confirmatory conditions>200 Whr/m^2), and solutions (in HPLC diluent) at 25 and 40° C. for 1 week. Stressed samples were analyzed using HPLC to determine their impurity profiles.

[5] = Hygroscopicity - Dynamic Vapor Sorption (DVS); details: for Hydration properties DVS: hydrate formed: Table 6 summary; for DVS total weight gain: at 95% RH, 25° C.
Description: DVS is a gravimetric screening technique that measures how quickly and how much of a solvent (water) is adsorbed by a sample. The relative humidity or vapor concentration surrounding the sample is varied while the change in mass of the sample is measured. […] The mass values at each relative humidity step are used to generate the isotherm. Isotherms are divided in two components: sorption for increasing humidity steps and desorption for decreasing humidity steps.
Samples were analyzed using a TA Q2000 automated dynamic vapor sorption analyzer. The samples were dried at 40° C. for 5 hours and then cooled to 25° C. with a dry nitrogen purge over them until they no longer lost mass at 0% RH.

physchem = details: buffered water, pH 4, aqueous buffer, thermodynamic from solid
Description: Milligram size (2 mg) quantities of each sample were placed into a vial. Buffered water (pH 4, 7, and 10) was added and the vials were stirred for a few minutes, followed by visual observation for remaining solids. The solvent was incrementally added until the solids were dissolved, or a maximum volume of solvent (10 mL) was added and the experiment was terminated.

4T1 mammary tumor = test: Anti-tumor efficacy in 4T1 mouse model of metastatic mammary cancer; type: in vivo, BALB/c mice; details: diet with 3 g/kg chow (0.3% w/w), started 9 days post tumor injection
Text: The lysine salt was incorporated into standard mouse chow at an amount of 3 g/kg chow (0.3% w/w) by Harlan Teklad, Madison Wis. Half of the mice were placed on an α-TEA-Lys diet after the tumors were established (9 days post tumor injection.) and the rest placed on an analogous nutrient diet without α-TEA-Lys which served as the control group.

[6] = Oxidation Ambient (oxygen headspace, 25° C., 1 week)
[7] = Photo Stability Exposed (UV, ICH confirmatory conditions)
[8] = Solid State Ambient (25° C., 1 week)
[9] = Solution 40° C. Methanol, 1 week
[10] = Solution Ambient Methanol, 1 week

SMILES	Class (safety and pharmaceutical acceptability of the counter-ions) [2]	HLPC Total Area Normalization - Area % Purity [4, 6]	HLPC Total Area Normalization - Area % Purity ([4]; Photo Stability Dark Control)	HLPC Total Area Normalization - Area % Purity [4, 7]	HLPC Total Area Normalization - Area % Purity ([4]; Solid State 60° C., 1 week)	HLPC Total Area Normalization - Area % Purity [4, 8]	HLPC Total Area Normalization - Area % Purity [4, 9]	HLPC Total Area Normalization - Area % Purity [4, 10]	further results
C[N+](C)(C)CCO [Choline]	I	–	–	–	–	–	–	–	pKa [1]: >11
N=C(N)NCCC[C@H](N)C(=O)O [L-Arginine]	I	–	–	–	–	–	–	–	–
NCCCC[C@H](N)C(=O)O [L-Lysine]	I	–	–	–	–	–	–	–	–
[Ca+2].[OH-].[OH-] [calcium hydroxide]	I	–	–	–	–	–	–	–	–
CN(C)CCO [deanol, N,N-dimethylethanolamine, N,N-dimethylethanolamine]	–	–	–	–	–	–	–	–	pKa [1]: 8.8
[Mg+2].[OH-].[OH-] [magnesium hydroxide]	I	–	–	–	–	–	–	–	–
[K+].[OH-] [potassium hydroxide]	I	–	–	–	–	–	–	–	–
Cc1c(C)c2c(c(C)c1OCC(=O)O)CCC(C)(CCCC(C)CCCC(C)CCCC(C)C)O2.N=C(N)NCCC[C@H](N)C(=O)O (stereo not drawn) [α-TEA arginine salt]	–	98.4 Area %	97.9 Area %	98.5 Area %	98.6 Area %	98.6 Area %	98.2 Area %	98.4 Area %	Hydration properties Static 75% RH 30 Days, weight gain ([3]; 75% RH): 0.7 wt %; static humidity weight gain ([3]; 75% RH, 33 days): 0.7%; static humidity weight gain ([3]; 84% RH, 9 days): 2.3%; Stability compared to free acid [4]: more stable; Hydration properties DVS: hydrate formed [5]: hemihydrate; Counter Ion Class [2]: I
Cc1c(C)c2c(c(C)c1OCC(=O)O)CC[C@@](C)(CCC[C@H](C)CCC[C@H](C)CCCC(C)C)O2 [α-TEA free acid, α-tocopheryloxyacetic acid, reference compound]	–	97.8 Area %	97.7 Area %	98.2 Area %	98.0 Area %	97.8 Area %	94.6 Area %	96.0 Area %	solubility (physchem): < 200 µg/mL; DVS conclusion on hydrate formation / deliquescence ([5]; 0 to 95% RH): does not form hydrates or exhibit deliquescence; DVS total weight gain [5]: about 0.2%
Cc1c(C)c2c(c(C)c1OCC(=O)O)CCC(C)(CCCC(C)CCCC(C)CCCC(C)C)O2.NCCCC[C@H](N)C(=O)O (stereo not drawn) [α-TEA lysine salt]	–	98.8 Area %	98.7 Area %	98.8 Area %	98.7 Area %	98.8 Area %	98.2 Area %	98.8 Area %	average tumor size compared to control diet (4T1 mammary tumor): significant decrease in average tumor size; complete tumor regression, share of the mice treated (4T1 mammary tumor): about 25%; survival compared to control diet (Kaplan-Meier) (4T1 mammary tumor): increased survival; Hydration properties Static 75% RH 30 Days, weight gain ([3]; 75% RH): 0.6 wt% wt %; static humidity weight gain ([3]; 75% RH, 33 days): 0.6%; static humidity weight gain ([3]; 84% RH, 9 days): 1.8%; Stability compared to free acid [4]: more stable; Hydration properties DVS: hydrate formed [5]: hydrate; DVS total weight gain [5]: about 12%; DVS residual weight after desorption cycle ([5]; corresponds to a putative hydrate): 2 weight %; Counter Ion Class [2]: I
Cc1c(C)c2c(c(C)c1OCC(=O)O)CCC(C)(CCCC(C)CCCC(C)CCCC(C)C)O2.NC(CO)(CO)CO (stereo not drawn) [α-TEA tris salt]	–	98.5 Area %	98.2 Area %	98.7 Area %	98.4 Area %	98.6 Area %	98.2 Area %	98.5 Area %	Hydration properties Static 75% RH 30 Days, weight gain ([3]; 75% RH): 4.0 wt %; static humidity weight gain ([3]; 75% RH, 33 days): 4.0%; Stability compared to free acid [4]: more stable; Hydration properties DVS: hydrate formed [5]: hemihydrate
